From patent US20240190880A1 (THE REGENTS OF THE UNIVERSITY OF MICHIGAN, priority 2021, published 2024)

target: T1, ER (Homo sapiens, UniProt P03372); assay: ER degradation activity, in-cell western blot analysis in T47D cells; assay type: cell-based; conditions: 16 hours, Table A does not say which cell line (T47D or MCF7), read-out: Potency (DC50)
T1 construct: host or cells: T47D and MCF7 human breast cancer cells
T1 sequence (P03372 1-595): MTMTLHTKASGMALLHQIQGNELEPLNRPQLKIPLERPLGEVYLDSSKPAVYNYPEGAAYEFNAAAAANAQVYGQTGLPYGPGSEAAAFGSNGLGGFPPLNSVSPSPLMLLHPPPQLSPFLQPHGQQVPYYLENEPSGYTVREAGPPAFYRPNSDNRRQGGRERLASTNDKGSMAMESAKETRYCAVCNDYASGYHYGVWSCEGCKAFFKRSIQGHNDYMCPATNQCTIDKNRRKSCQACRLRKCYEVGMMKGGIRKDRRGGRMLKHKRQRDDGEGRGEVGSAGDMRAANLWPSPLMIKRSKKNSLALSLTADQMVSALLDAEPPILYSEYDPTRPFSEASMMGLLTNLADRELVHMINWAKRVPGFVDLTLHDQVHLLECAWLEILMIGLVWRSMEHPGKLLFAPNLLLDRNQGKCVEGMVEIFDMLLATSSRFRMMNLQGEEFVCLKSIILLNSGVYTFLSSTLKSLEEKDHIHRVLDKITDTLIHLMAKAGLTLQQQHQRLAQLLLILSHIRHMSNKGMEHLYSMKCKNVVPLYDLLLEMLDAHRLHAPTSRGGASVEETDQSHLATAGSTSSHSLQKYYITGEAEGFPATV
Outline: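 Cells were seeded overnight, exposed to diluted compounds for 16 hours, then stained with primary antibodies and with infrared-labelled secondary antibodies (1:1000, 1 h RT). Plates were scanned on a CLX reader, and ER levels were normalised to DMSO-treated wells.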

Row | DC50 [nM] | SMILES
1 | < 10 | C[C@@H]1Cc2cc(O)ccc2[C@@H](c2ccc(N3CCC(C(=O)N4CCC(N5Cc6cc7c(cc6C5)C(=O)N(C5CCC(=O)NC5=O)C7=O)CC4)CC3)cc2F)N1CC(F)F (stereo partly drawn) [E 323, 6-(1-(1-(4-((1S,3R)-2-(2,2-difluoroethyl)-6-hydroxy-3-methyl-1,2,3,4-tetrahydroisoquinolin-1-yl)-3-fluorophenyl)piperidine-4-carbonyl)piperidin-4-yl)-2-(2,6-dioxopiperidin-3-yl)-6,7-dihydropyrrolo[3,4-f]isoindole-1,3(2H,5H)-dione]
2 | > 100 | CN(C1CCC(N2Cc3cc4c(cc3C2)C(=O)N(C2CCC(=O)NC2=O)C4=O)CC1)C1CCN(c2ccc([C@@H]3c4ccc(O)cc4CC[C@@H]3c3ccccc3)cc2)CC1 (stereo partly drawn) [E 324, 2-(2,6-dioxopiperidin-3-yl)-6-(4-((1-(4-((1R,2S)-6-hydroxy-2-phenyl-1,2,3,4-tetrahydronaphthalen-1-yl)phenyl)piperidin-4-yl)(methyl)amino)cyclohexyl)-6,7-dihydropyrrolo[3,4-f]isoindole-1,3(2H,5H)-dione]
3 | 10 to 100 | C[C@@H]1Cc2c([nH]c3ccccc23)[C@@H](c2c(F)cc(-c3ccc(C(=O)N4CCC(N5Cc6cc7c(cc6C5)C(=O)N(C5CCC(=O)NC5=O)C7=O)CC4)nc3)cc2F)N1CC(F)F (stereo partly drawn) [E 325, 6-(1-(5-(4-((1R,3R)-2-(2,2-difluoroethyl)-3-methyl-2,3,4,9-tetrahydro-1H-pyrido[3,4-b]indol-1-yl)-3,5-difluorophenyl)picolinoyl)piperidin-4-yl)-2-(2,6-dioxopiperidin-3-yl)-6,7-dihydropyrrolo[3,4-f]isoindole-1,3(2H,5H)-dione]
4 | > 100 | O=C1CCC(N2C(=O)c3cc4c(cc3C2=O)CN([C@H]2CC[C@H](NC3CCN(c5ccc([C@@H]6c7ccc(O)cc7CC[C@@H]6c6ccccc6)cc5)CC3)CC2)C4)C(=O)N1 (stereo partly drawn) [E 335, 2-(2,6-dioxopiperidin-3-yl)-6-((1R,4r)-4-((1-(4-((1R,2S)-6-hydroxy-2-phenyl-1,2,3,4-tetrahydronaphthalen-1-yl)phenyl)piperidin-4-yl)amino)cyclohexyl)-6,7-dihydropyrrolo[3,4-f]isoindole-1,3(2H,5H)-dione]
5 | > 100 | O=C1CCC(N2C(=O)c3cc4c(cc3C2=O)CN(C2CCC(C(=O)NC3CN(c5ccc([C@@H]6c7ccc(O)cc7CC[C@@H]6c6ccccc6)cc5)C3)CC2)C4)C(=O)N1 (some centres unmarked) [E 336]
6 | > 100 | O=C1CCC(N2C(=O)c3cc4c(cc3C2=O)CN(CC2CCC(NC3CN(c5ccc([C@@H]6c7ccc(O)cc7CC[C@@H]6c6ccccc6)cc5)C3)CC2)C4)C(=O)N1 (stereo partly drawn) [E 337, 2-(2,6-dioxopiperidin-3-yl)-6-((4-((1-(4-((1R,2S)-6-hydroxy-2-phenyl-1,2,3,4-tetrahydronaphthalen-1-yl)phenyl)azetidin-3-yl)amino)cyclohexyl)methyl)-6,7-dihydropyrrolo[3,4-f]isoindole-1,3(2H,5H)-dione]
7 | > 100 | O=C1CCC(N2C(=O)c3cc4c(cc3C2=O)CN(C2CCC(CNC3CN(c5ccc([C@@H]6c7ccc(O)cc7CC[C@@H]6c6ccccc6)cc5)C3)CC2)C4)C(=O)N1 (stereo partly drawn) [E 338, 2-(2,6-dioxopiperidin-3-yl)-6-(4-(((1-(4-((1R,2S)-6-hydroxy-2-phenyl-1,2,3,4-tetrahydronaphthalen-1-yl)phenyl)azetidin-3-yl)amino)methyl)cyclohexyl)-6,7-dihydropyrrolo[3,4-f]isoindole-1,3(2H,5H)-dione]
8 | > 100 | O=C1CCC(N2C(=O)c3cc4c(cc3C2=O)CN(C2CCC(NCC3CN(c5ccc([C@@H]6c7ccc(O)cc7CC[C@@H]6c6ccccc6)cc5)C3)CC2)C4)C(=O)N1 (stereo partly drawn) [E 339, 2-(2,6-dioxopiperidin-3-yl)-6-(4-(((1-(4-((1R,2S)-6-hydroxy-2-phenyl-1,2,3,4-tetrahydronaphthalen-1-yl)phenyl)azetidin-3-yl)methyl)amino)cyclohexyl)-6,7-dihydropyrrolo[3,4-f]isoindole-1,3(2H,5H)-dione]
9 | > 100 | O=C1CCC(N2C(=O)c3cc4c(cc3C2=O)CN([C@H]2CC[C@@H](NC3CN(c5ccc([C@@H]6c7ccc(O)cc7CC[C@@H]6c6ccccc6)cc5)C3)CC2)C4)C(=O)N1 (stereo partly drawn) [E 340, 2-(2,6-dioxopiperidin-3-yl)-6-((1S,4s)-4-((1-(4-((1R,2S)-6-hydroxy-2-phenyl-1,2,3,4-tetrahydronaphthalen-1-yl)phenyl)azetidin-3-yl)amino)cyclohexyl)-6,7-dihydropyrrolo[3,4-f]isoindole-1,3(2H,5H)-dione]
10 | > 100 | O=C1CCC(N2C(=O)c3cc4c(cc3C2=O)CN([C@H]2CC[C@H](NC3CN(c5ccc([C@@H]6c7ccc(O)cc7CC[C@@H]6c6ccccc6)cc5)C3)CC2)C4)C(=O)N1 (stereo partly drawn) [E 341, 2-(2,6-dioxopiperidin-3-yl)-6-((1R,4r)-4-((1-(4-((1R,2S)-6-hydroxy-2-phenyl-1,2,3,4-tetrahydronaphthalen-1-yl)phenyl)azetidin-3-yl)amino)cyclohexyl)-6,7-dihydropyrrolo[3,4-f]isoindole-1,3(2H,5H)-dione]
11 | > 100 | O=C1CCC(N2C(=O)c3cc4c(cc3C2=O)CN(Cc2cnc(N3CC(Oc5ccc([C@@H]6c7ccc(O)cc7CC[C@@H]6c6ccccc6)cc5)C3)cn2)C4)C(=O)N1 (stereo partly drawn) [E 342, 2-(2,6-dioxopiperidin-3-yl)-6-((5-(3-(4-((1R,2S)-6-hydroxy-2-phenyl-1,2,3,4-tetrahydronaphthalen-1-yl)phenoxy)azetidin-1-yl)pyrazin-2-yl)methyl)-6,7-dihydropyrrolo[3,4-f]isoindole-1,3(2H,5H)-dione]
12 | < 10 | C[C@@H]1Cc2c([nH]c3ccccc23)[C@@H](c2c(F)cc(-c3ccc(C(=O)N4CCC(N5Cc6cc7c(cc6C5)C(=O)N(C5CCC(=O)NC5=O)C7=O)CC4)cn3)cc2F)N1CC(F)F (stereo partly drawn) [E 343, 6-(1-(6-(4-((1R,3R)-2-(2,2-difluoroethyl)-3-methyl-2,3,4,9-tetrahydro-1H-pyrido[3,4-b]indol-1-yl)-3,5-difluorophenyl)nicotinoyl)piperidin-4-yl)-2-(2,6-dioxopiperidin-3-yl)-6,7-dihydropyrrolo[3,4-f]isoindole-1,3(2H,5H)-dione]
13 | > 100 | C[C@@H]1Cc2c([nH]c3ccccc23)[C@@H](c2c(F)cc(-c3cnc(C(=O)N4CCC(N5Cc6cc7c(cc6C5)C(=O)N(C5CCC(=O)NC5=O)C7=O)CC4)cn3)cc2F)N1CC(F)F (stereo partly drawn) [E 344, 6-(1-(5-(4-((1R,3R)-2-(2,2-difluoroethyl)-3-methyl-2,3,4,9-tetrahydro-1H-pyrido[3,4-b]indol-1-yl)-3,5-difluorophenyl)pyrazine-2-carbonyl)piperidin-4-yl)-2-(2,6-dioxopiperidin-3-yl)-6,7-dihydropyrrolo[3,4-f]isoindole-1,3(2H,5H)-dione]
14 | 10 to 100 | C[C@@H]1Cc2c([nH]c3ccccc23)[C@@H](c2c(F)cc(-c3ccc(C(=O)N4CCC(N5Cc6cc7c(cc6C5)C(=O)N(C5CCC(=O)NC5=O)C7=O)CC4)nn3)cc2F)N1CC(F)F (stereo partly drawn) [E 345, 6-(1-(6-(4-((1R,3R)-2-(2,2-difluoroethyl)-3-methyl-2,3,4,9-tetrahydro-1H-pyrido[3,4-b]indol-1-yl)-3,5-difluorophenyl)pyridazine-3-carbonyl)piperidin-4-yl)-2-(2,6-dioxopiperidin-3-yl)-6,7-dihydropyrrolo[3,4-f]isoindole-1,3(2H,5H)-dione]
15 | < 10 | C[C@@H]1Cc2c([nH]c3ccccc23)[C@@H](c2c(F)cc(-c3ncc(C(=O)N4CCC(N5Cc6cc7c(cc6C5)C(=O)N(C5CCC(=O)NC5=O)C7=O)CC4)cn3)cc2F)N1CC(F)F (stereo partly drawn) [E 346, 6-(1-(2-(4-((1R,3R)-2-(2,2-difluoroethyl)-3-methyl-2,3,4,9-tetrahydro-1H-pyrido[3,4-b]indol-1-yl)-3,5-difluorophenyl)pyrimidine-5-carbonyl)piperidin-4-yl)-2-(2,6-dioxopiperidin-3-yl)-6,7-dihydropyrrolo[3,4-f]isoindole-1,3(2H,5H)-dione]
16 | < 10 | C[C@@H]1Cc2c([nH]c3ccccc23)[C@@H](c2c(F)cc(-c3ccc(C(=O)N4CCC(N5Cc6cc7c(cc6C5)C(=O)N(C5CCC(=O)NC5=O)C7=O)CC4)cc3)cc2F)N1CC(F)F (stereo partly drawn) [E 347, 6-(1-(4′-((1R,3R)-2-(2,2-difluoroethyl)-3-methyl-2,3,4,9-tetrahydro-1H-pyrido[3,4-b]indol-1-yl)-3′,5′-difluoro-[1,1′-biphenyl]-4-carbonyl)piperidin-4-yl)-2-(2,6-dioxopiperidin-3-yl)-6,7-dihydropyrrolo[3,4-f]isoindole-1,3(2H,5H)-dione]
17 | 10 to 100 | C[C@@H]1Cc2c([nH]c3ccccc23)[C@@H](c2c(F)cc(C3CCN(C(=O)C4CCC(N5Cc6cc7c(cc6C5)C(=O)N(C5CCC(=O)NC5=O)C7=O)CC4)CC3)cc2F)N1CC(F)F (stereo partly drawn) [E 348, 6-(4-(4-(4-((1R,3R)-2-(2,2-difluoroethyl)-3-methyl-2,3,4,9-tetrahydro-1H-pyrido[3,4-b]indol-1-yl)-3,5-difluorophenyl)piperidine-1-carbonyl)cyclohexyl)-2-(2,6-dioxopiperidin-3-yl)-6,7-dihydropyrrolo[3,4-f]isoindole-1,3(2H,5H)-dione]
